According to patent US9434711B2 (Janssen Pharmaceutica, NV, priority 2007, dated 2016):

Biological target: canine TRPM8 (Canis lupus familiaris, UniProt Q1A7N1)
Assay: In Vitro Canine TRPM8 Functional Assay (Ca2+ fluorescence, icilin activation)
Assay type: cell-based
Details: for IC50: HEK293 cells stably expressing canine TRPM8, icilin activation, eight-point dose-response, read-out: IC50; for inhibition at 0.2 µM / % Inh @ 0.2 (μM): compound at 0.2 μM, canine TRPM8, icilin activation; for inhibition at 0.2 µM: read-out: % Inh @ 0.2
Procedure, shortened: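 Cells (HEK293, stable canine TRPM8) are seeded 24 h before assay. They are then dye-loaded with Calcium 3 at 37 °C followed by room temperature. Compound is added and monitored for 5 min, after which icilin (~80% maximal response) is added.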

canine TRPM8, sequence (Q1A7N1 1-1104): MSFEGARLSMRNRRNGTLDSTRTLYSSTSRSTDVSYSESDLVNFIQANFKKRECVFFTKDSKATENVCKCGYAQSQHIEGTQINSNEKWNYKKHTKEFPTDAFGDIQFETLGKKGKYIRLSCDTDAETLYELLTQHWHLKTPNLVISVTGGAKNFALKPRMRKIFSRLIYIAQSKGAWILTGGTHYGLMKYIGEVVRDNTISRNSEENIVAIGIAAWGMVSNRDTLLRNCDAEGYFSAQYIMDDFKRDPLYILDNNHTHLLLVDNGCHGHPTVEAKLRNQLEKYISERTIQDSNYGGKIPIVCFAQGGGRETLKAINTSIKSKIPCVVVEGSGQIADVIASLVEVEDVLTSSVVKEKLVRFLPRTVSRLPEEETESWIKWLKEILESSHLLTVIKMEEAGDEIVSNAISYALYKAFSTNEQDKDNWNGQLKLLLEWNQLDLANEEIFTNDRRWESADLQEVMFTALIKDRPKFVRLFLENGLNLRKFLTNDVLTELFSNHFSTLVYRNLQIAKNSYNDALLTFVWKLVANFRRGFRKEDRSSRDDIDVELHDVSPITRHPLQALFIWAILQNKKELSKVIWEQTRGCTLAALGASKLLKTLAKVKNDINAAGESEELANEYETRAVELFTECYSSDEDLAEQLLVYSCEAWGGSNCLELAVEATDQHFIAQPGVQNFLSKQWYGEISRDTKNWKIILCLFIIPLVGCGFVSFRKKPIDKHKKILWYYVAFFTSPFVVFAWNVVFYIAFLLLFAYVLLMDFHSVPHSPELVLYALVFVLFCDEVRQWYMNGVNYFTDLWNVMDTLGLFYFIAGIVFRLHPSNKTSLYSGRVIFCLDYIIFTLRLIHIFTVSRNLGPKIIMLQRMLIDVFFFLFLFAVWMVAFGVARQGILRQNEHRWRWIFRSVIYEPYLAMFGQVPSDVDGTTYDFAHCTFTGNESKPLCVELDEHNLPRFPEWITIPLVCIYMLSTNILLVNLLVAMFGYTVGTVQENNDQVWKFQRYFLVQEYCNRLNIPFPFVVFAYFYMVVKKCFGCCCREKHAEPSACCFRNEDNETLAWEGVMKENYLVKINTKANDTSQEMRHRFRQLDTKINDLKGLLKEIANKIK

IC50	inhibition at 0.2 µM	Structure (SMILES)	% Inh @ 0.2 (μM)
13.3 nM	100%	CC(=O)c1c(N(Cc2ccccc2)S(=O)(=O)c2ccc(Br)cc2)sc2ccccc12 [Compound 732, N-(3-Acetyl-benzo[b]thiophen-2-yl)-N-(benzyl)-4-bromobenzenesulfonamide]	
13.4 nM	100%	CC(=O)c1c(N(Cc2ccc(F)c(Cl)c2)S(=O)(=O)c2ccc(Br)cc2)sc2ccccc12 [Compound 733, N-(3-Acetyl-benzo[b]thiophen-2-yl)-4-bromo-N-(3-chloro-4-fluoro-benzyl)benzenesulfonamide]	
9.7 nM	102%	CC(C)(O)c1c(N(Cc2ccc(F)cc2)S(=O)(=O)c2ccc(Br)cc2)sc2ccccc12 [Compound 734, N-(4-Fluorobenzyl)-N-(3-(1-hydroxy-1-methyl-ethyl)-benzo[b]thiophen-2-yl)-4-bromo-benzenesulfonamide]	
26.8 nM	101%	CC(C)(O)c1c(N(Cc2ccc(OC(F)(F)F)cc2)S(=O)(=O)c2ccc(Br)cc2)sc2ccccc12 [Compound 735, N-(3-(1-Hydroxy-1-methyl-ethyl)-benzo[b]thiophen-2-yl)-N-(4-trifluoromethoxybenzyl)-4-bromo-benzenesulfonamide]	
17.2 nM	101%	CC(C)(O)c1c(N(Cc2ccccc2)S(=O)(=O)c2ccc(Br)cc2)sc2ccccc12 [Compound 736, N-(Benzyl)-N-(3-(1-hydroxy-1-methyl-ethyl)-benzo[b]thiophen-2-yl)-4-bromo-benzenesulfonamide]	
29.9 nM	101%	CC(C)(O)c1c(N(Cc2ccc(F)c(Cl)c2)S(=O)(=O)c2ccc(Br)cc2)sc2ccccc12 [Compound 737, N-(3-Chloro-4-fluorobenzyl)-N-(3-(1-hydroxy-1-methyl-ethyl)-benzo[b]thiophen-2-yl)-4-bromo-benzenesulfonamide]	
8.9 nM	102%	Cc1c(N(CCC2CC2)S(=O)(=O)c2ccc(N(C)C)cc2)sc2ccccc12 [Compound 738, N-(3-Methyl-benzo[b]thiophen-2-yl)-N-(cyclopropyl-ethyl)-4-dimethylamino-benzenesulfonamide]	
23.2 nM	90%	CCN(CC)c1ccc(S(=O)(=O)N(CCC2CC2)c2sc3ccccc3c2C)cc1 [Compound 739, N-(3-Methyl-benzo[b]thiophen-2-yl)-N-(cyclopropyl-ethyl)-4-diethylamino-benzenesulfonamide]	
	57%	Cc1c(N(CCC2CC2)S(=O)(=O)c2ccc(N3CCSCC3)cc2)sc2ccccc12 [Compound 740, N-(3-Methyl-benzo[b]thiophen-2-yl)-N-(cyclopropyl-ethyl)-4-thiomorpholin-4-yl-benzenesulfonamide]	
17.3 nM	101%	Cc1c(N(CCC2CC2)S(=O)(=O)c2ccc(N3CCOCC3)cc2)sc2ccccc12 [Compound 741, N-(3-Methyl-benzo[b]thiophen-2-yl)-N-(cyclopropyl-ethyl)-4-morpholino-benzenesulfonamide]	
	66%	Cc1c(N(CCC2CC2)S(=O)(=O)c2ccc(N3CCNCC3)cc2)sc2ccccc12 [Compound 742, N-(3-Methyl-benzo[b]thiophen-2-yl)-N-(cyclopropyl-ethyl)-4-(piperazin-1-yl)-benzenesulfonamide]	
	32%	COc1cc(NS(C)(=O)=O)ccc1S(=O)(=O)N(Cc1ccc(F)c(C(F)(F)F)c1)c1cc2ccccc2s1 [Compound 743, N-(Benzo[b]thiophen-2-yl)-N-(4-fluoro-3-trifluoromethyl-benzyl)-4-methanesulfonylamino-2-methoxy-benzenesulfonamide]	
57.3 nM	99%	COc1cc(NS(C)(=O)=O)ccc1S(=O)(=O)N(Cc1ccc(F)c(C(F)(F)F)c1)c1sc2ccccc2c1Cl [Compound 744, N-(3-Chloro-benzo[b]thiophen-2-yl)-N-(4-fluoro-3-trifluoromethyl-benzyl)-4-methanesulfonylamino-2-methoxy-benzenesulfonamide]	
84.9 nM	74%	Cc1c(N(CCC2CC2)S(=O)(=O)c2nc3ccccc3n2C)sc2ccccc12 [Compound 745, N-(Cyclopropyl-ethyl)-N-(3-methyl-benzo[b]thiophen-2-yl)-1-methyl-1H-benzimidazole-2-sulfonamide]	
	31%	Cc1c(N(Cc2ccc(OC(F)(F)F)cc2)S(=O)(=O)c2nc3ccccc3n2C)sc2ccccc12 [Compound 746, N-(3-Methyl-benzo[b]thiophen-2-yl)-N-(4-trifluoromethoxy-benzyl)-1-methyl-1H-benzimidazole-2-sulfonamide]	
		Cc1c(N(Cc2ccc(F)c(C(F)(F)F)c2)S(=O)(=O)c2ccc3c(c2)CC(N)C3)sc2ccccc12 (stereo not shown) [Compound 747, 2-Amino-indan-N-(3-methyl-benzo[b]thiophen-2-yl)-N-(4-fluoro-3-trifluoromethyl-benzyl)-N-sulfonamide]	48%

IC50	inhibition at 0.2 µM	Structure (SMILES)	% Inh @ 0.2 (μM)
5.3 nM	101%	Cc1c(N(CCCCC(F)(F)F)S(=O)(=O)c2ccc(N(C)C)cc2)sc2ccccc12 [Compound 748, N-(3-Methyl-benzo[b]thiophen-2-yl)-N-(5,5,5-trifluoro-pentyl)-4-dimethylamino-benzenesulfonamide]	
9.2 nM	101%	Cc1c(N(CCCCC(F)(F)F)S(=O)(=O)c2ccc(N3CCOCC3)cc2)sc2ccccc12 [Compound 750, N-(3-Methyl-benzo[b]thiophen-2-yl)-N-(5,5,5-trifluoro-pentyl)-4-morpholino-benzenesulfonamide]	
	54%	Cc1c(N(CCC2CC2)S(=O)(=O)c2ccc(N3CCCCC3)cc2)sc2ccccc12 [Compound 751, N-(3-Methyl-benzo[b]thiophen-2-yl)-N-(cyclopropyl-ethyl)-4-piperidin-1-yl-benzenesulfonamide]	
		Cc1c(N(CCCCC(F)(F)F)S(=O)(=O)c2ccc(N3CCCCC3)cc2)sc2ccccc12 [Compound 752, N-(3-Methyl-benzo[b]thiophen-2-yl)-N-(5,5,5-trifluoro-pentyl)-4-piperidine-benzenesulfonamide]	65%
27.2 nM	69%	COC(=O)c1ccc(S(=O)(=O)N(Cc2ccc(OC(F)(F)F)cc2)c2sc3ccccc3c2C2CC2)cc1 [Compound 753, N-(3-Cyclopropyl-benzo[b]thiophen-2-yl)-N-(4-trifluoromethoxy-benzyl)-4-carbomethoxy-benzenesulfonamide]	
16.4 nM	82%	COC(=O)c1ccc(S(=O)(=O)N(Cc2ccc(OC(F)(F)F)cc2)c2sc3ccccc3c2C2CCC2)cc1 [Compound 754, N-(3-Cyclobutyl-benzo[b]thiophen-2-yl)-N-(4-trifluoromethoxy-benzyl)-4-carbomethoxy-benzenesulfonamide]	
0.9 nM	101%	O=C(O)c1ccc(S(=O)(=O)N(Cc2ccc(OC(F)(F)F)cc2)c2sc3ccccc3c2C2CC2)cc1 [Compound 755, N-(3-Cyclopropyl-benzo[b]thiophen-2-yl)-N-(4-trifluoromethoxyl-benzyl)-4-carboxy-benzenesulfonamide]	
1.4 nM	101%	O=C(O)c1ccc(S(=O)(=O)N(Cc2ccc(OC(F)(F)F)cc2)c2sc3ccccc3c2C2CCC2)cc1 [Compound 756, N-(3-Cyclobutyl-benzo[b]thiophen-2-yl)-N-(4-trifluoromethoxy-benzyl)-4-carboxy-benzenesulfonamide]	
10.8 nM	101%	COC(=O)CCCS(=O)(=O)N(Cc1ccc(F)c(C(F)(F)F)c1)c1sc2ccccc2c1C [Compound 757, N-(4-Fluoro-3-trifluoromethyl-benzyl)-N-(3-methyl-benzo[b]thiophen-2-yl)-3-carbomethoxy-propanesulfonamide]	
5.1 nM	101%	Cc1c(N(Cc2ccc(F)c(C(F)(F)F)c2)S(=O)(=O)CCCCO)sc2ccccc12 [Compound 758, N-(4-Fluoro-3-trifluoromethyl-benzyl)-N-(3-methyl-benzo[b]thiophen-2-yl)-4-hydroxy-butanesulfonamide]	
18.3 nM	101%	Cc1c(N(Cc2ccc(F)c(C(F)(F)F)c2)S(=O)(=O)CCCC(C)(C)O)sc2ccccc12 [Compound 759, N-(4-Fluoro-3-trifluoromethyl-benzyl)-N-(3-methyl-benzo[b]thiophen-2-yl)-4-hydroxy-4-methyl-pentane-1-sulfonamide]	
45.9 nM	94%	COC(=O)CCS(=O)(=O)N(Cc1cccc(OC(F)(F)F)c1)c1sc2ccccc2c1C [Compound 760, N-(3-Methyl-benzo[b]thiophen-2-yl)-N-(3-trifluoromethoxy-benzyl)-2-carbomethoxy-ethanesulfonamide]	
40 nM	79%	COC(=O)CS(=O)(=O)N(Cc1ccc(OC(F)(F)F)cc1)c1sc2ccccc2c1C [Compound 761, N-(3-Methyl-benzo[b]thiophen-2-yl)-N-(4-trifluoromethoxy-benzyl)-carbomethoxy-methanesulfonamide]	
25.3 nM	101%	Cc1c(N(Cc2cccc(OC(F)(F)F)c2)S(=O)(=O)CCC(=O)O)sc2ccccc12 [Compound 762, N-(3-Methyl-benzo[b]thiophen-2-yl)-N-(3-trifluoromethoxy-benzyl)-2-carboxy-ethanesulfonamide]	
27.7 nM	102%	Cc1c(N(Cc2cccc(OC(F)(F)F)c2)S(=O)(=O)CCC(C)(C)O)sc2ccccc12 [Compound 763, N-(3-Methyl-benzo[b]thiophen-2-yl)-N-(3-trifluoromethoxy-benzyl)-3-hydroxy-3-methyl-butane-1-sulfonamide]	
